Legend:
P. falciparum (FCB-1) = assay: growth inhibition assay by [3H] hypoxanthine uptake; type: cell-based, Plasmodium falciparum; details: 200 μM
Description: Asexual blood stages of P. falciparum (FCB-1) were maintained at 37° C. in RPMI 1640/Albumax medium (Gibco) supplemented with 2 mM L-glutamine as previously described (Blackman, 1994 Methods Cell Biol. 45, 213-220). Cultures were gassed with 7% CO2, 5% O2 and 88% N2 and maintained by routine passage in fresh human erythrocytes. Parasites were synchronised by Percoll and sorbitol treatment (Holder & Freeman, 1982 J. Exp. Med. 156, 1528-1538); schizonts were purified by centrifugation over Percoll and then returned to culture in the presence of fresh erythrocytes. After 4 h, during which time released merozoites invaded erythrocytes, the cells were treated with 5% sorbitol for 10 min to lyse the residual schizonts, before returning the parasites to culture.
Suramin and NTS were also assayed for P. falciparum growth inhibition using [^3H] hypoxanthine uptake (generally as described by Desjardins et al, 1979 Antimicrob. Agents Chemother. 16, 710-718). Serial dilutions of the compounds in 96-well plates were incubated at 37° C. with purified mature schizonts at a final parasitaemia of ^˜0.5% and a haematrocrit of ^˜2% in triplicate cultures. […] The filters were wetted with scintillation cocktail and the bound radioactivity counted in a β-counter. […] The amount of radioactivity in each sample was expressed as a percentage of activity in the control wells containing no compound. […]

MSP142 [1] = molecular target: T1, MSP142 (Plasmodium falciparum, UniProt Q8I0U8); assay: inhibition of suramin binding (fluorescence, 384-well plate); details: 10 μM analogue, 2 μM suramin, 0.1 mg/ml MSP142
Description: MSP142 (0.1 mg/ml), 10 μM suramin analogue and 2 μM suramin were combined in a 384-well black polypropylene low binding plate (total reaction volume 100 μL). Fluorescence was read at λex 320 nm/λem 405 nm on a BMG Polarstar fluorimeter. Readings were taken before, and 1 hour after, addition of suramin.
Target sequence in this assay (Q8I0U8 1327-1699): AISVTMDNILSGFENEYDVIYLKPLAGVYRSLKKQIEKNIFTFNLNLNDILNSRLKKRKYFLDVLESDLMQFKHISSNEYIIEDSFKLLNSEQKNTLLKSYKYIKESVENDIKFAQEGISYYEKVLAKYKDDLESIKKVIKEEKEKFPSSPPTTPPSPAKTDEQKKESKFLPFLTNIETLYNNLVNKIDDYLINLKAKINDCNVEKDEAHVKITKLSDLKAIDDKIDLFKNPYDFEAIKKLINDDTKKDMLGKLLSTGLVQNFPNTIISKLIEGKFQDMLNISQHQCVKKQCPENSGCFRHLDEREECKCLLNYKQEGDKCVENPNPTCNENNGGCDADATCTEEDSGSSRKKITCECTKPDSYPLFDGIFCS

[2] = titration of fluorescent analogues in PBS buffer only; type: physicochemical; details: 0.01-200 μM
Description: Analogues 258, 261, 264 and 266 were titrated against (a) PBS buffer only, (b) 0.1 mg/ml bovine serum albumin in PBS or (c) 0.1 mg/ml MSP142 in PBS. Fluorescence observed was compared to naphthalenetrisulphate (non-specific reagent) and suramin.

MSP142 [3] = molecular target: T1, MSP142; assay: P. falciparum MSP1 secondary processing assay (merozoites, Western blot); type: biochemical; parameters: Merozoites were purified as described previously; endogenous in cells; host or cells: purified P. falciparum merozoites released from mature schizonts; details: 1 mM, 1 h at 37° C.
Description: Merozoites were purified as described previously (Blackman 1994 Methods Cell Biol. 45, 213-220) after release from mature schizonts into growth medium supplemented with 2 mM EGTA. Merozoites were harvested by centrifugation, followed by sequential passage through pre-wetted filters of 3 and 1.2 μm pore size. Merozoites were washed in Ca^2+- and Mg^2+-free PBS in the presence of protease inhibitors (leupeptin, antipain and aprotinin at 10 μg ml^−1). The merozoites were then washed and resuspended in 50 mM Tris-HCl pH 7.2, 5 mM CaCl2, 1 mM MgCl2, plus leupeptin, antipain and aprotinin at 10 μg ml^−1 (processing buffer), and divided into 18 μl aliquots. Two microlitres of either diluted compound or reaction buffer were added and the samples incubated for 1 h at 37° C. Control assays included those in which processing was prevented by immediate addition of either SDS, 1 mM PMSF or 5 mM EGTA; and those in the absence of compound or in the presence of 0.2 mM TLCK (tosyl-L-lysyl chloromethyl ketone). After 1 h the reaction was stopped, and MSP1 processing was analysed using a Western blot-based assay (Blackman 1994 Methods Cell Biol. 45, 213-220). The blots were probed with a rabbit anti-MSP133/MSP142 antibody and the bands corresponding to MSP142 and MSP133 polypeptides were visualised by enhanced chemiluminescence.
Purified merozoites were incubated in the presence or absence of suramin or NTS and polypeptides subjected to SDS-PAGE and Western blotting.
Target sequence in this assay (Q8I0U8 20-1326): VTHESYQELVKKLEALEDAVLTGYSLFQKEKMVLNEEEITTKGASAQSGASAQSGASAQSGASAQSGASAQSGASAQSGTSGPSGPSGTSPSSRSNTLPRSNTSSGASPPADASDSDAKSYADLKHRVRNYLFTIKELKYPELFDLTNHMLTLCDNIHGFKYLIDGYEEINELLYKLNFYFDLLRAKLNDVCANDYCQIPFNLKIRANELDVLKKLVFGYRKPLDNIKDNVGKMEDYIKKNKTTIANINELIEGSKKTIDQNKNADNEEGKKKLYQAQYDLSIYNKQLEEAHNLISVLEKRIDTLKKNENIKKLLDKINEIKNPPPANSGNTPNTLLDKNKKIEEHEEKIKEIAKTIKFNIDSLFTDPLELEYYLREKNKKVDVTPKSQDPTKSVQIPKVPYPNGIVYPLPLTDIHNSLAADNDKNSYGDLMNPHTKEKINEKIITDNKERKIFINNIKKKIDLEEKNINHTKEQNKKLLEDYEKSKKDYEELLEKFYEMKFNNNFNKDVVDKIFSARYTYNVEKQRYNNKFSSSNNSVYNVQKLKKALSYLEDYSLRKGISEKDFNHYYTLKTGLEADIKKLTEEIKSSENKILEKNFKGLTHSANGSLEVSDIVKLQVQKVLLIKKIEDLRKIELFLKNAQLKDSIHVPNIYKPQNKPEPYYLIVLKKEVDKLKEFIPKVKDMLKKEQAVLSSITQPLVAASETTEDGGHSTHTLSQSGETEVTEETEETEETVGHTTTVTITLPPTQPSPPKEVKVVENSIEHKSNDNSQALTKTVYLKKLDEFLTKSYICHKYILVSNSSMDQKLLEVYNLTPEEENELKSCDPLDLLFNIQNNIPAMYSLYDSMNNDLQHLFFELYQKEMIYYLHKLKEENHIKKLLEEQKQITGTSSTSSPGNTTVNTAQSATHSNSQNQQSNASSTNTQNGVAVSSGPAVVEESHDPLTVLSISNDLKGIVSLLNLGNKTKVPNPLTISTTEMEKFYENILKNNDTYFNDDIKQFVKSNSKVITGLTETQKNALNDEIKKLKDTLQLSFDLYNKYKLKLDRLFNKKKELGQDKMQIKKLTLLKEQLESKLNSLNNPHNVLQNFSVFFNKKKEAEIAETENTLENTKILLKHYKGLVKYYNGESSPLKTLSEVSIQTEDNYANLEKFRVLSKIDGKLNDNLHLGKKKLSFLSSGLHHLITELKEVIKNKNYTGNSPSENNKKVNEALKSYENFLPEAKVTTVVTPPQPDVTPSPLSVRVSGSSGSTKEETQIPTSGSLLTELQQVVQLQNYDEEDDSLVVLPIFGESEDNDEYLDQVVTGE
Target sequence in this assay (Q8I0U8 1327-1699): as the sequence (Q8I0U8 1327-1699) above

Row | Structure (SMILES) | inhibition of invasion at the highest concentration tested (P. falciparum (FCB-1)) | effect on the fluorescent signal of suramin / own fluorescence (MSP142 [1]) | fluorescence in buffer alone [2] | inhibition of MSP142 secondary processing (MSP142 [3])
1 | O=S(=O)(O)c1ccc2c(S(=O)(=O)O)cc(S(=O)(=O)O)cc2c1 [NTS, Naphthalene-1,3,6-trisulphonic acid] | did not inhibit invasion | most fluorescent compound tested | fluorescent in buffer alone | –
2 | O=S(=O)(F)Cc1ccccc1 [PMSF] | – | – | – | absence of MSP133
